Reference: the supplement of paper PMC10307832

How the values were obtained:
BI-D1870 + Trametinib = compound: CC(C)CCN1c2nc(Nc3cc(F)c(O)c(F)c3)ncc2N(C)C(=O)C1C [BI-D1870] + CC(=O)Nc1cccc(-n2c(=O)n(C3CC3)c(=O)c3c(Nc4ccc(I)cc4F)n(C)c(=O)c(C)c32)c1 [Trametinib] (partner 0.02 µM); assay: relative viability (nuclei count vs DMSO), 5 days (fraction); higher = more cells survive
Outline: (§1)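 Cells from lung cancer lines were seeded into 1536-well plates and, one day later, dosed by pin tool. Treatments were either a single drug or a fixed dose of an anchor drug with five library-drug doses (not always all listed) in √10 steps. After 5 days, nuclei were stained in a one-step fixation (final 0.05% Triton X-100, 1% formaldehyde, 1 ug/ml Hoechst) and counted on 4× images, and relative viability is the treated-to-vehicle nuclei ratio, as the median of duplicate plates.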

BI-D1870 + AZD7762 = compound: CC(C)CCN1c2nc(Nc3cc(F)c(O)c(F)c3)ncc2N(C)C(=O)C1C [BI-D1870] + NC(=O)Nc1cc(-c2cccc(F)c2)sc1C(=O)N[C@H]1CCCNC1 [AZD7762] (partner 0.2 µM); assay: as above
Outline: as §1

Row | Cell Line | relative viability (BI-D1870 + Trametinib; first compound 0.04 µM) | relative viability (BI-D1870 + Trametinib; first compound 0.1265 µM) | relative viability (BI-D1870 + Trametinib; first compound 0.4 µM) | relative viability (BI-D1870 + Trametinib; first compound 1.265 µM) | relative viability (BI-D1870 + Trametinib; first compound 4 µM) | relative viability (BI-D1870 + AZD7762; first compound 0.04 µM) | relative viability (BI-D1870 + AZD7762; first compound 0.1265 µM) | relative viability (BI-D1870 + AZD7762; first compound 0.4 µM) | relative viability (BI-D1870 + AZD7762; first compound 1.265 µM) | relative viability (BI-D1870 + AZD7762; first compound 4 µM)
1 | NCI-H650 | 0.995 | 0.82 | 0.862 | 0.901 | 0.904 | 1.14 | 0.83 | 0.897 | 1.17 | 0.778
2 | NCI-H661 | 0.607 | 0.499 | 0.598 | 0.589 | 0.472 | – | – | – | – | –
3 | NCI-H727 | 0.41 | 0.406 | 0.406 | 0.438 | 0.429 | 0.575 | 0.793 | 0.569 | 0.838 | 0.515
4 | NCI-H838 | 0.597 | 0.444 | 0.536 | 0.667 | 0.523 | 0.994 | 0.909 | 0.893 | 1.04 | 0.947
5 | NCI-H1355 | 0.455 | 0.361 | 0.448 | 0.418 | 0.454 | 0.954 | 0.732 | 0.7 | 0.849 | 0.551
6 | NCI-H1395 | 1.09 | 0.972 | 1.01 | 1.17 | 0.978 | 0.398 | 0.374 | 0.42 | 0.427 | 0.454
7 | NCI-H1437 | 0.556 | 0.475 | 0.494 | 0.568 | 0.398 | 1.09 | 1.06 | 1.12 | 1.1 | 1.06
8 | NCI-H1648 | 0.445 | 0.54 | – | 0.552 | 0.49 | 0.67 | 0.677 | – | 0.646 | 0.57
9 | NCI-H1650 | 0.705 | 0.551 | 0.573 | 0.64 | 0.552 | – | – | – | – | –
10 | NCI-H1651 | 0.874 | 0.881 | 0.81 | 0.936 | 0.828 | 0.511 | 0.491 | 0.395 | 0.465 | 0.403
11 | NCI-H1666 | 0.847 | 0.798 | 0.801 | 0.882 | 0.878 | 0.934 | 0.868 | 0.778 | 0.995 | 0.812
12 | NCI-H1703 | – | – | – | – | – | 0.143 | – | 0.122 | 0.142 | 0.116
13 | NCI-H1734 | 0.752 | 0.549 | 0.658 | 0.706 | 0.632 | 0.635 | 0.494 | 0.608 | 0.72 | 0.593
14 | NCI-H1755 | 0.758 | 0.774 | 0.74 | 0.831 | 0.739 | 0.417 | 0.412 | 0.407 | 0.486 | 0.404
15 | NCI-H1792 | 0.489 | 0.349 | 0.437 | 0.567 | 0.372 | 0.728 | 0.599 | 0.72 | 0.72 | 0.527
16 | NCI-H1793 | 0.486 | 0.332 | 0.366 | 0.631 | 0.429 | 0.74 | 0.411 | 0.296 | 0.417 | 0.504
17 | NCI-H1915 | 0.332 | 0.27 | 0.27 | 0.254 | 0.249 | 0.706 | 0.636 | 0.665 | 0.7 | 0.616
18 | NCI-H1944 | 0.443 | 0.362 | 0.382 | 0.423 | 0.393 | 0.624 | 0.433 | 0.514 | 0.685 | 0.546
19 | NCI-H1975 | 0.373 | 0.285 | 0.339 | 0.365 | 0.289 | 0.791 | 0.611 | 0.721 | 0.732 | 0.653

Row | Cell Line | relative viability (BI-D1870 + Trametinib; first compound 0.04 µM) | relative viability (BI-D1870 + Trametinib; first compound 0.1265 µM) | relative viability (BI-D1870 + Trametinib; first compound 0.4 µM) | relative viability (BI-D1870 + Trametinib; first compound 1.265 µM) | relative viability (BI-D1870 + Trametinib; first compound 4 µM) | relative viability (BI-D1870 + AZD7762; first compound 0.04 µM) | relative viability (BI-D1870 + AZD7762; first compound 0.1265 µM) | relative viability (BI-D1870 + AZD7762; first compound 0.4 µM) | relative viability (BI-D1870 + AZD7762; first compound 1.265 µM) | relative viability (BI-D1870 + AZD7762; first compound 4 µM)
20 | NCI-H1993 | 0.404 | 0.505 | 0.621 | 0.567 | 0.42 | 0.878 | 0.682 | 1.03 | 0.988 | 0.471
21 | NCI-H2009 | 0.299 | 0.221 | 0.248 | 0.289 | 0.198 | – | – | – | – | –
22 | NCI-H2023 | 0.537 | 0.389 | 0.578 | 0.516 | 0.349 | – | – | – | – | –
23 | NCI-H2085 | 0.547 | 0.411 | 0.576 | 0.654 | 0.524 | 1.06 | 0.972 | 0.927 | 0.97 | 0.771
24 | NCI-H2087 | 0.2 | 0.158 | 0.189 | 0.246 | 0.199 | 1.41 | 1.4 | 1.37 | 1.45 | 1.41
25 | NCI-H2126 | 0.557 | 0.598 | 0.564 | 0.546 | 0.539 | 1.02 | 1.02 | 0.95 | 1.05 | 0.991
26 | NCI-H2170 | 1 | 0.829 | 0.887 | 0.939 | 0.874 | 0.977 | 0.882 | 0.844 | 0.923 | 0.654
27 | NCI-H2228 | 0.54 | 0.367 | 0.362 | 0.56 | 0.223 | – | – | – | – | –
28 | NCI-H2342 | 0.794 | 0.805 | 0.881 | 1 | 1.01 | 0.493 | 0.609 | 0.392 | 0.803 | 0.667
29 | NCI-H2347 | 0.302 | 0.26 | 0.273 | 0.296 | 0.322 | 0.811 | 0.768 | 0.798 | 0.933 | 0.822
30 | NCI-H2405 | 0.683 | 0.595 | 0.586 | 0.67 | 0.601 | 0.875 | 0.707 | 0.717 | 0.806 | 0.624
31 | NCI-H3122 | 0.234 | 0.202 | 0.234 | 0.25 | 0.279 | 0.947 | 0.902 | 0.952 | 1.06 | 0.944
32 | PC-3 [JPC-3] | 0.751 | 0.701 | 0.632 | 0.762 | 0.576 | 0.851 | 0.75 | 0.837 | 0.693 | 0.449
33 | PC-14 | 0.864 | 0.534 | 0.788 | 0.498 | 0.243 | 0.449 | 0.301 | 0.361 | 0.344 | 0.316
34 | RERF-LC-KJ | 0.901 | 0.752 | 0.863 | 0.837 | 0.693 | 0.944 | 0.896 | 0.946 | 1.08 | 0.914
35 | SK-LU-1 | 0.553 | 0.403 | 0.372 | 0.515 | 0.408 | – | – | – | – | –
36 | SK-MES-1 | 0.541 | 0.532 | 0.518 | 0.471 | 0.307 | – | – | – | – | –
37 | SW 1573 | 0.595 | 0.528 | 0.552 | 0.497 | 0.318 | – | – | – | – | –
